Read-outs that look alike come from different tables or passages of the source.
What was measured:
[1] = test system: Burkholderia cepacia complex; assay: Checkerboard FIC assay, BisEDT with CF agents (Example 10); type: cell-based, Burkholderia spp.; conditions: agent alone, as observed during FIC testing
P. aeruginosa = assay: Broth microdilution MIC (Example 10)
[2] = test system: Burkholderia cepacia complex; assay: Broth microdilution MIC (Example 10); conditions: initial MIC testing
Candida albicans = assay: Broth microdilution MIC, yeast (Example 13); type: cell-based; conditions: 24 hr
Candida glabrata = assay: Broth microdilution MIC, yeast (Example 13); type: cell-based
Candida krusei = assay: Broth microdilution MIC, yeast (Example 13); type: cell-based
Candida auris = assay: Broth microdilution MIC, yeast (Example 13); type: cell-based
Aspergillus spp. = assay: Broth microdilution MIC/MEC, mold (Example 13); type: cell-based; conditions: for MIC0 (complete inhibition): comparators, read time not given
[3] = Candida albicans ATCC 90028, Susceptible
[4] = Candida albicans MMX 7053, Susceptible
[5] = Candida albicans MMX 7403, Susceptible
[6] = Candida albicans MMX 7430, Susceptible
[7] = Candida albicans MMX 7437, FLU-I
[8] = Candida glabrata ATCC 90030, Susceptible
[9] = Candida glabrata ATCC MYA-2950, Susceptible
[10] = Candida glabrata MMX 7087, Susceptible
[11] = Candida glabrata MMX 7111, Susceptible
[12] = Candida glabrata MMX 7549, Susceptible
[13] = C. krusei ATCC 14243, Susceptible
[14] = C. krusei ATCC 96685, Susceptible
[15] = C. krusei MMX 7125, Susceptible
[16] = C. krusei MMX 7128, Susceptible
[17] = C. krusei MMX 7141, Susceptible
[18] = C. krusei MMX 7155, Susceptible
[19] = C. krusei MMX 7563, Susceptible
[20] = C. krusei MMX 9878, MICA-I, VORI-I

C[C@H]1[C@H](NC(=O)/C(=N\OC(C)(C)C(=O)O)c2csc(N)n2)C(=O)N1S(=O)(=O)O [AZT]
128 mg/L: MIC ([2]; B. cepacia isolate 1793)
4 mg/L: MIC (P. aeruginosa; P. aeruginosa isolate 1530 (TOB-R, AMK-R, CIP-R), initial MIC testing) | MIC (P. aeruginosa; P. aeruginosa isolate 7874, initial MIC testing) | MIC ([2]; B. multivorans isolate 1791) | MIC ([2]; B. multivorans isolate 1795 (MEM-I, CIP-R)) | MIC ([2]; B. multivorans isolate 5665 (CIP-I))
256 mg/L: MIC (P. aeruginosa; P. aeruginosa isolate 8798 (MEM-R, TOB-R, AMK-R, CIP-R, AZT-R, COL-R), initial MIC testing) | MIC ([2]; B. cenocepacia isolate 8555)
16 mg/L: MIC ([1]; B. multivorans isolate 1795) | MIC (P. aeruginosa; P. aeruginosa isolate 6977 (MEM-I, TOB-R, CIP-R, AZT-I), initial MIC testing) | MIC (P. aeruginosa; P. aeruginosa isolate 7754 (MEM-R, TOB-R, CIP-R, AZT-I), initial MIC testing) | MIC (P. aeruginosa; P. aeruginosa isolate 7871 (MEM-R, AZT-I), initial MIC testing) | MIC (P. aeruginosa; P. aeruginosa isolate 9108 (CIP-R, AZT-I), initial MIC testing) | MIC ([2]; B. cepacia isolate 0546) | MIC ([2]; B. cepacia isolate 0547)
64 mg/L: MIC ([1]; B. cenocepacia isolate 0548) | MIC (P. aeruginosa; P. aeruginosa isolate 6322 (MEM-R, TOB-R, AMK-R, CIP-R, AZT-R), initial MIC testing) | MIC (P. aeruginosa; P. aeruginosa isolate 7886 (MEM-R, CIP-R, AZT-R), initial MIC testing) | MIC ([2]; B. multivorans isolate 1580 (CIP-R))
8 mg/L: MIC (P. aeruginosa; P. aeruginosa isolate 103 (ATCC 25922), QC strain, initial MIC testing) | MIC (P. aeruginosa; P. aeruginosa isolate 103 (ATCC 25922), during FIC testing, each agent tested alone for QC, one replicate) | MIC (P. aeruginosa; P. aeruginosa isolate 1553 (TOB-R, AMK-R, CIP-R), initial MIC testing) | MIC (P. aeruginosa; P. aeruginosa isolate 7762 (MEM-I, CIP-I), initial MIC testing) | MIC ([2]; B. cenocepacia isolate 0813 (CPI-I)) | MIC ([2]; B. multivorans isolate 8952 (CIP-I))
32 mg/L: MIC ([1]; B. cenocepacia isolate 0813) | MIC (P. aeruginosa; P. aeruginosa isolate 1497 (TOB-R, AMK-R, CIP-I, AZT-R, COL-R), initial MIC testing) | MIC (P. aeruginosa; P. aeruginosa isolate 7745 (MEM-R, CIP-R, AZT-R), initial MIC testing) | MIC ([2]; B. cenocepacia isolate 1631) | MIC ([2]; B. cenocepacia isolate 1783) | MIC ([2]; B. cepacia isolate 1794) | MIC ([2]; B. cepacia isolate 9040)
>256 mg/L: MIC (P. aeruginosa; P. aeruginosa isolate 8797 (MEM-R, TOB-R, AMK-R, CIP-R, AZT-R, COL-R), initial MIC testing)

OC(Cn1cncn1)(Cn1cncn1)c1ccc(F)cc1F [FLU]
8 µg/mL: MIC2 (50% inhibition) (Candida glabrata; [8]) | MIC2 (50% inhibition) (Candida glabrata; [9])
32 µg/mL: MIC2 (50% inhibition) (Candida krusei) | MIC2 (50% inhibition) (Candida krusei; [14]) | MIC2 (50% inhibition) (Candida krusei; [15]) | MIC2 (50% inhibition) (Candida krusei; [18]) | MIC2 (50% inhibition) (Candida krusei; [19])
0.12 µg/mL: MIC2 (50% inhibition) (Candida albicans; [4])
1 µg/mL: MIC2 (50% inhibition) (Candida albicans; [5]) | MIC2 (50% inhibition) (Candida glabrata; [10])
16 µg/mL: MIC2 (50% inhibition) (Candida krusei; C. krusei ATCC 6258, MICA-I) | MIC2 (50% inhibition) (Candida krusei; [13]) | MIC2 (50% inhibition) (Candida krusei; [16]) | MIC2 (50% inhibition) (Candida krusei; [17])
>64 µg/mL: MIC2 (50% inhibition) (Candida auris) | MIC2 (50% inhibition) (Candida auris; C. auris MMX 9871, Susceptible) | MIC2 (Aspergillus spp.; A. flavus ATCC 22546) | MIC2 (Aspergillus spp.; A. flavus ATCC 204304) | MIC2 (Aspergillus spp.; A. flavus MMX 7935) | MIC2 (Aspergillus spp.; A. fumigatus ATCC 204305) | MIC2 (Aspergillus spp.; A. fumigatus ATCC MYA-3626) | MIC2 (Aspergillus spp.; A. fumigatus MMX 5934) | MIC2 (Aspergillus spp.; A. fumigatus MMX 5938) | MIC2 (Aspergillus spp.; A. fumigatus MMX 5939) | MIC2 (Aspergillus spp.; A. niger ATCC 29508) | MIC2 (Aspergillus spp.; A. terreus MMX 8229)
4 µg/mL: MIC2 (50% inhibition) (Candida albicans; [7]) | MIC2 (50% inhibition) (Candida glabrata; [12])
0.25 µg/mL: MIC2 (50% inhibition) (Candida albicans; [3])
0.5 µg/mL: MIC2 (50% inhibition) (Candida albicans; [6])
64 µg/mL: MIC2 (50% inhibition) (Candida krusei; [20])
2 µg/mL: MIC2 (50% inhibition) (Candida glabrata; [11]) | MIC2 (50% inhibition) (Candida auris; C. auris MMX 9862, Susceptible)

C[C@@H](c1ncncc1F)[C@](O)(Cn1cncn1)c1ccc(F)cc1F [VORI]
0.25 µg/mL: MIC2 (50% inhibition) (Candida krusei; [15]) | MIC2 (50% inhibition) (Candida krusei; C. krusei MMX 7153, MICA-R) | MIC2 (50% inhibition) (Candida krusei; [18]) | MIC2 (50% inhibition) (Candida krusei; [19]) | MIC0 (complete inhibition) (Aspergillus spp.; A. fumigatus MMX 5934) | MIC0 (complete inhibition) (Aspergillus spp.; A. fumigatus MMX 5938) | MIC0 (complete inhibition) (Aspergillus spp.; A. terreus MMX 8229)
0.5 µg/mL: MIC2 (50% inhibition) (Candida albicans; Candida albicans ATCC MYA-2732, FLU-R, VORI-I) | MIC2 (50% inhibition) (Candida krusei; [14]) | MIC0 (complete inhibition) (Aspergillus spp.; A. flavus MMX 7935) | MIC0 (complete inhibition) (Aspergillus spp.; A. fumigatus ATCC 204305) | MIC0 (complete inhibition) (Aspergillus spp.; A. fumigatus ATCC MYA-3626) | MIC0 (complete inhibition) (Aspergillus spp.; A. niger ATCC 29508)
0.03 µg/mL: MIC2 (50% inhibition) (Candida glabrata; [10]) | MIC2 (50% inhibition) (Candida auris; C. auris MMX 9862, Susceptible)
0.06 µg/mL: MIC2 (50% inhibition) (Candida glabrata; [11]) | MIC2 (50% inhibition) (Candida glabrata; [12]) | MIC2 (50% inhibition) (Candida krusei; [13])
≤0.008 µg/mL: MIC2 (50% inhibition) (Candida albicans; [3]) | MIC2 (50% inhibition) (Candida albicans; Candida albicans ATCC 204276, MICA-R) | MIC2 (50% inhibition) (Candida albicans; [4]) | MIC2 (50% inhibition) (Candida albicans; [5]) | MIC2 (50% inhibition) (Candida albicans; Candida albicans MMX 7424, CASP-R, MICA-R) | MIC2 (50% inhibition) (Candida albicans; [6])
4 µg/mL: MIC2 (50% inhibition) (Candida glabrata; Candida glabrata MMX 7307, CASP-R, MICA-R, FLU-R) | MIC2 (50% inhibition) (Candida auris; C. auris MMX 9870, FLU-R, VORI-R)
1 µg/mL: MIC2 (50% inhibition) (Candida glabrata; Candida glabrata MMX 7285, CASP-R, MICA-R) | MIC2 (50% inhibition) (Candida krusei; [20]) | MIC2 (50% inhibition) (Candida auris; C. auris MMX 9871, Susceptible) | MIC0 (complete inhibition) (Aspergillus spp.; A. flavus ATCC 22546)
8 µg/mL: MIC2 (50% inhibition) (Candida auris; C. auris MMX 9865, FLU-R, VORI-R) | MIC2 (50% inhibition) (Candida auris; C. auris MMX 9866, FLU-R, VORI-R) | MIC2 (50% inhibition) (Candida auris; C. auris MMX 9867, FLU-R, VORI-R)
0.12 µg/mL: MIC2 (50% inhibition) (Candida albicans; [7]) | MIC2 (50% inhibition) (Candida glabrata; [8]) | MIC2 (50% inhibition) (Candida glabrata; [9]) | MIC2 (50% inhibition) (Candida glabrata; Candida glabrata MMX 7103, CASP-R, MICA-R) | MIC2 (50% inhibition) (Candida krusei; C. krusei ATCC 6258, MICA-I) | MIC2 (50% inhibition) (Candida krusei; [16]) | MIC2 (50% inhibition) (Candida krusei; [17])
2 µg/mL: MIC2 (50% inhibition) (Candida glabrata; Candida glabrata MMX 7093, FLU-R) | MIC2 (50% inhibition) (Candida glabrata; Candida glabrata MMX 7101, FLU-R) | MIC2 (50% inhibition) (Candida auris; C. auris MMX 9864, FLU-R, VORI-R) | MIC2 (50% inhibition) (Candida auris; C. auris MMX 9869, FLU-R, VORI-R) | MIC0 (complete inhibition) (Aspergillus spp.; A. flavus ATCC 204304) | MIC0 (complete inhibition) (Aspergillus spp.; A. fumigatus MMX 5939)
>8 µg/mL: MIC2 (50% inhibition) (Candida albicans; Candida albicans MMX 7067, FLU-R, VORI-R) | MIC2 (50% inhibition) (Candida albicans; Candida albicans MMX 7445, FLU-R, VORI-R) | MIC2 (50% inhibition) (Candida auris; C. auris MMX 9863, FLU-R, VORI-R) | MIC2 (50% inhibition) (Candida auris; C. auris MMX 9868, FLU-R, VORI-R)
